Measured values reported in patent US20230365563A1, “QUINAZOLINE COMPOUND AND APPLICATION THEREOF” (SHANGHAI PHARMACEUTICALS HOLDING CO., LTD., priority 2020, published 2023).
Structures can show the parent of a compound that is named as a salt.

How the values were obtained:
[1] = biological target: T1, KRAS-G12D and SOS1 (Homo sapiens, UniProt P01116, G12D); assay: Inhibition of KRAS-G12D/SOS1 binding (Cisbio binding kit, 665/615 ratio), Effect Embodiment A; conditions: read-out: GTP-KRAS-G12D:SOS1 IC50
T1 construct: purchased
T1 sequence (P01116 1-188 isoform P01116-2 G12D): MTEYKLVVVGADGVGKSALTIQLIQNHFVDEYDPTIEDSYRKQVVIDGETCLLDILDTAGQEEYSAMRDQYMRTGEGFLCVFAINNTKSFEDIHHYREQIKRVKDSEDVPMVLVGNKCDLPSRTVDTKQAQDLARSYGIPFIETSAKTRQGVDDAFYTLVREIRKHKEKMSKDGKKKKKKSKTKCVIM
Outline: (§1)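 Compounds are tested over eleven threefold dilution steps in duplicate, with final DMSO at 1%.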

[2] = biological target: T2, KRAS_G12D and cRAF (Homo sapiens, UniProt P01116, G12D); assay: Inhibition of KRAS_G12D/cRAF binding (Cisbio binding kit, 665/615 ratio), Effect Embodiment B; conditions: read-out: GTP-KRAS-G12D:CRAF IC50
T2 construct: purchased
T2 sequence (P01116 1-188 isoform P01116-2 G12D): as above
Outline: as §1

[3] = biological target: T3, KRAS_WT and SOS1 (Homo sapiens, UniProt P01116); assay: Inhibition of KRAS_WT/SOS1 binding (Cisbio binding kit, 665/615 ratio), Effect Embodiment C; conditions: read-out: GTP-KRAS-WT:SOS1 IC50
T3 construct: purchased
T3 sequence (P01116 1-188 isoform P01116-2): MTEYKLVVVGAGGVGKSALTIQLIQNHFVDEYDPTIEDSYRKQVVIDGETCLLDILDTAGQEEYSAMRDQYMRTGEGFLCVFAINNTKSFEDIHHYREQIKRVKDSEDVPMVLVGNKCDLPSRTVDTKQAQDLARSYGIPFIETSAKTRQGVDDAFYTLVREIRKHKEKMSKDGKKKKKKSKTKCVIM
Outline: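 Compounds tested as 3-fold, 11-point dilutions in duplicate at 1% DMSO final against the KRAS_WT/SOS1 binding system. IC50 derived by nonlinear regression fit.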

Row | SMILES | IC50 [1] [µM] | IC50 [2] [µM] | IC50 [3] [µM]
1 | CN1CCN(CCCOc2nc(N3CC4CCC(C3)N4)c3cc(Cl)c(-c4cc(O)cc5ccccc45)c(F)c3n2)CC1 (single isomer, unassigned) [Compound 99, 4-((S or R)-4-((1R,5S)-3,8-diazabicyclo[3.2.1]octan-3-yl)-6-chloro-8-fluoro-2-(3-(4-methylpiperazin-1-yl)propoxy)quinazolin-7-yl)naphthalen-2-ol dihydrochloride] | 0.0522 | 0.168 | 2.6
2 | C[C@H](COc1nc(N2CC3CCC(C2)N3)c2cc(Cl)c(-c3cc(O)cc4ccccc34)c(F)c2n1)CN(C)C (single isomer, unassigned) [Compound 202, 4-((S or R)-4-((1R,5S)-3,8-diazabicyclo[3.2.1]octan-3-yl)-6-chloro-2-((S)-3-(dimethylamino)-2-methylpropoxy)-8-fluoroquinazolin-7-yl)naphthalen-2-ol diformate] | 0.0518 | 0.168 | 2.15
3 | CN(C)[C@H]1C[C@@H](Oc2nc(N3CC4CCC(C3)N4)c3cc(Cl)c(-c4cc(O)cc5ccccc45)c(F)c3n2)C1 (single isomer, unassigned) [Compound 69a, 4-((S or R)-4-((1R,5S)-3,8-diazabicyclo[3.2.1]octan-3-yl)-6-chloro-2-((1S,3R)-3-(dimethylamino)cyclobutoxy)-8-fluoroquinazolin-7-yl)naphthalen-2-ol dihydrochloride] | 0.225 | 1.85 | > 100
4 | Oc1cc(-c2cc(F)c3c(N4CC5CCC(C4)N5)nc(OCCCN4C5CCC4COC5)nc3c2F)c2ccccc2c1 [Compound 253, 4-(2-(3-(3-Oxa-8-azabicyclo[3.2.1]octan-8-yl)propoxy)-4-((1R,5S)-3,8-diazabicyclo[3.2.1]octan-3-yl)-5,8-difluoroquinazolin-7-yl)naphthalen-2-ol formate] | 0.063 | 0.489 | 1.98
5 | C=CCN1CCC[C@H]1COc1nc(N2CC3CCC(C2)N3)c2cc(F)c(-c3cc(O)cc4ccc(F)c(CC)c34)c(F)c2n1 (single isomer, unassigned) [Compound 287a, 4-((S or R)-2-((S)-1-allylpyrrolidin-2-yl)methoxy)-4-((1R,5S)-3,8-diazacyclo[3.2.1]octan-3-yl)-6,8-difluoroquinazolin-7-yl)-5-ethyl-6-fluoronaphthalen-2-ol dihydrochloride] | 0.0101 | 0.0114 | 0.0291
6 | CCCCN(C)CCCOc1nc(N2CC3CCC(C2)N3)c2cc(Cl)c(-c3cc(O)cc4ccccc34)c(F)c2n1 (single isomer, unassigned) [Compound 113, 4-((S or R)-4-((1R,5S)-3,8-diazabicyclo[3.2.1]octan-3-yl)-2-(3-(butyl(methyl)amino)propoxy)-6-chloro-8-fluoroquinazolin-7-yl)naphthalen-2-ol hydrochloride] | 0.0518 | 0.13 | 4
7 | CN(C)C1CCC(Oc2nc(N3CC4CCC(C3)N4)c3cc(Cl)c(-c4cc(O)cc5ccccc45)c(F)c3n2)C1 (single isomer, unassigned) [Compound 70b, 4-((S or R)-4-((1R,5S)-3,8-diazabicyclo[3.2.1]octan-3-yl)-6-chloro-2-((1R,3S or 1S,3R)-3-(dimethylamino)cyclopentyl)oxy)-8-fluoroquinazolin-7-yl)naphthalen-2-ol dihydrochloride] | 0.066 | 0.515 | > 100
8 | CN(C)C1CN(c2nc(N3CC4CCCC3CN4)c3cc(Cl)c(-c4cc(O)cc5ccccc45)c(F)c3n2)C1 (single isomer, unassigned) [Compound 37, 4-((S or R)-4-((1S,5S or 1R,5R)-6,8-diazabicyclo[3.2.2]nonan-6-yl)-6-chloro-2-(3-(dimethylamino)azetidin-1-yl)-8-fluoroquinazolin-7-yl)naphthalen-2-ol] | 0.629 | 2.14 | 1.01
9 | CCc1c(F)ccc2cc(O)cc(-c3c(F)cc4c(N5CC6CCC(C5)N6)nc(OCCCN5C[C@@H](C)O[C@@H](C)C5)nc4c3F)c12 (single isomer, unassigned) [Compound 250a, (S or R)-4-(4-((1R,5S)-3,8-diazacyclo[3.2.1]octan-3-yl)-2-(3-((2R,6S)-2,6-dimethylmorpholinyl)propoxy)-6,8-difluoroquinazolin-7-yl)-5-ethyl-6-fluoronaphthalen-2-ol formate] | 0.00842 | 0.0146 | 0.0752
10 | Oc1cc(-c2c(Cl)cc3c(N4CC5CCC(C4)N5)nc(OCCN4CCCC(F)C4)nc3c2F)c2ccccc2c1 (single isomer, unassigned) [Compound 267b, 4-((R or S)-4-((1R,5S)-3,8-diazacyclo[3.2.1]octan-3-yl)-6-chloro-8-fluoro-2-(2-((R or S)-3-fluoropiperidin-1-yl)ethoxy)quinazolin-7-yl)naphthalen-2-ol formate] | 0.118 | 0.278 | 4.6
11 | Oc1cc(-c2c(Cl)cc3c(N4CC5CCC(C4)N5)nc(OCCCN4CCC5(CCOC5)CC4)nc3c2F)c2ccccc2c1 (single isomer, unassigned) [Compound 261, 4-((S or R)-2-(3-(2-oxa-8-azaspiro[4.5]decan-8-yl)propoxy)-4-((1R,5S)-3,8-diazacyclo[3.2.1]octan-3-yl)-6-chloro-8-fluoroquinazolin-7-yl)naphthalen-2-ol diformate] | 0.0187 | 0.102 | 1.08
12 | Oc1cc(-c2c(Cl)cc3c(N4CC5CCC(C4)N5)nc(OCC4CCC5COCCN5C4)nc3c2F)c2ccccc2c1 (single isomer, unassigned) [Compound 264a, 4-((S or R)-4-((1R,5S)-3,8-diazacyclo[3.2.1]octan-3-yl)-6-chloro-8-fluoro-2-((7S or 7R, 9aS or 9aR)-octahydropyridine[2,1-c][1,4]oxazin-7-yl)methoxy)quinazolin-7-yl)naphthalen-2-ol formate] | 0.0117 | 0.0321 | 0.342
13 | C[C@H]1C[C@@H](COc2nc(N3CC4CCC(C3)N4)c3cc(Cl)c(-c4cc(O)cc5ccccc45)c(F)c3n2)N(C)C1 (single isomer, unassigned) [Compound 190, 4-((R or S)-4-((1R,5S)-3,8-diazabicyclo[3.2.1]octan-3-yl)-6-chloro-2-((2S,4S)-1,4-dimethylpyrrolidin-2-yl)methoxy)-8-fluoroquinazolin-7-yl)naphthalen-2-ol diformate] | 0.0153 | 0.0289 | 0.292
14 | CO[C@@H]1C[C@@H](COc2nc(N3CC4CCC(C3)N4)c3cc(Cl)c(-c4cc(O)cc5ccccc45)c(F)c3n2)N(C)C1 (single isomer, unassigned) [Compound 166, (R or S)-4-(4-((1R,5S)-3,8-diazabicyclo[3.2.1]octan-3-yl)-6-chloro-8-fluoro-2-((2S,4R)-4-methoxy-1-methylpyrrolidin-2-yl)methoxy)quinazolin-7-yl)naphthalenol dihydrochloride] | 0.025 | 0.0319 | 0.553
